The source of these data is ChEMBL document CHEMBL5291721, “A preclinical secondary pharmacology resource illuminates target-adverse drug reaction associations of marketed drugs” (Nat Commun, 2023).

In general, AC50 refers to the midpoint of the concentration-response curve, whichever way the signal moves.

The structures appear in SMILES notation.

In test [1] the target is T1, Peroxisome proliferator-activated receptor gamma (Homo sapiens, UniProt P37231).
T1 sequence (P37231 whole entry): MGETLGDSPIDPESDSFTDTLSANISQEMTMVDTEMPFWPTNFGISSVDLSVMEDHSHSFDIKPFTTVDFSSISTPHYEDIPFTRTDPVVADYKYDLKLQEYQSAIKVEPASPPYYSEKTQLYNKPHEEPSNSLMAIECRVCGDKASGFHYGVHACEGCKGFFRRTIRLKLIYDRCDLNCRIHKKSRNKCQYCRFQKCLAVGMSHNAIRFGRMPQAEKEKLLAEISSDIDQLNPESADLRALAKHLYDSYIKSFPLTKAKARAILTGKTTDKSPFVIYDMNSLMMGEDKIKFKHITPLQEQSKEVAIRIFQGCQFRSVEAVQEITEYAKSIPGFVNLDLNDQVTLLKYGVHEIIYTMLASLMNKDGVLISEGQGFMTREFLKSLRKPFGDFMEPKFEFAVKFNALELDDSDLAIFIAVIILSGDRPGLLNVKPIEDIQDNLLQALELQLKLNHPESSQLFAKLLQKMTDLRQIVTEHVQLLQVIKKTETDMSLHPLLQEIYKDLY
Type of test: functional.

For test [2], the target named is T1, Peroxisome proliferator-activated receptor gamma. Type of test: functional. This is another data set of the same source.
Test [3] deals with 5-hydroxytryptamine receptor 2B (Homo sapiens, UniProt P41595).
Test [4] deals with T2, Neuropeptide Y receptor type 2 (Homo sapiens, UniProt P49146).
T2 sequence (P49146 whole entry): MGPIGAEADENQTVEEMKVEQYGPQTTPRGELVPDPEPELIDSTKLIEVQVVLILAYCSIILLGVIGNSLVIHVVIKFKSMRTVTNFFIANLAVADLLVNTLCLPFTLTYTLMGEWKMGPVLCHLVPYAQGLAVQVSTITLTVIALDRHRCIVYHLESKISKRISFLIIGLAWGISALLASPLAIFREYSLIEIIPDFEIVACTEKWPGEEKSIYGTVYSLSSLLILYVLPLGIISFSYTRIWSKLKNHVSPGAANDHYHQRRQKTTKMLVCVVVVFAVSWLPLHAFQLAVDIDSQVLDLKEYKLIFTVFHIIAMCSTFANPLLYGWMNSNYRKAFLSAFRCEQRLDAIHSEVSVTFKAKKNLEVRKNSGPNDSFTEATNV

Test [5] has as its target T3, Corticotropin-releasing factor receptor 2 (Homo sapiens, UniProt Q13324).
T3 sequence (Q13324 whole entry): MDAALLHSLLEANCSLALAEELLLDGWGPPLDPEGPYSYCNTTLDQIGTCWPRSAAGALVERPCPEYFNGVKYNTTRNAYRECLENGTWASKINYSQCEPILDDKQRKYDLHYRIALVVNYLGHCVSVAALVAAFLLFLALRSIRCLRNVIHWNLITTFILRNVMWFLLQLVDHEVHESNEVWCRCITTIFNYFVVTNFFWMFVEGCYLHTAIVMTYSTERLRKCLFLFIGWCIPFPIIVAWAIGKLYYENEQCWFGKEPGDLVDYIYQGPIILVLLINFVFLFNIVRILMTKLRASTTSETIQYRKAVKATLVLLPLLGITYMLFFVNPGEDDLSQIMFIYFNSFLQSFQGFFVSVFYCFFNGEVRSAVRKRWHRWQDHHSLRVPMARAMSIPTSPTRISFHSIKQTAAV

The target of test [6] is T4, Alpha-1A adrenergic receptor (Homo sapiens, UniProt P35348).
T4 sequence (P35348 whole entry): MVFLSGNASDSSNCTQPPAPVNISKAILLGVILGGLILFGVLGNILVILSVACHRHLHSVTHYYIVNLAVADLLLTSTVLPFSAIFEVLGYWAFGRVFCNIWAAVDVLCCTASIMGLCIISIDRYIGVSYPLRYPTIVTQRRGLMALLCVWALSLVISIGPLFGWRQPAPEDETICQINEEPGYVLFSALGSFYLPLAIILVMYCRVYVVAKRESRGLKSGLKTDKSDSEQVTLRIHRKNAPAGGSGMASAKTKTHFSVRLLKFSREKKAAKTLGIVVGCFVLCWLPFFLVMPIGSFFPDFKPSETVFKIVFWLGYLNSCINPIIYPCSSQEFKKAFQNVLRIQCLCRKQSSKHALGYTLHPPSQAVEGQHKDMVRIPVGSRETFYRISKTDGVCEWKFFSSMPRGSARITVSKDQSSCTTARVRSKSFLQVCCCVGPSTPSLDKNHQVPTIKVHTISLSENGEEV

Test [7] concerns the target T5, Alpha-2A adrenergic receptor (Homo sapiens, UniProt P08913).
T5 sequence (P08913 whole entry): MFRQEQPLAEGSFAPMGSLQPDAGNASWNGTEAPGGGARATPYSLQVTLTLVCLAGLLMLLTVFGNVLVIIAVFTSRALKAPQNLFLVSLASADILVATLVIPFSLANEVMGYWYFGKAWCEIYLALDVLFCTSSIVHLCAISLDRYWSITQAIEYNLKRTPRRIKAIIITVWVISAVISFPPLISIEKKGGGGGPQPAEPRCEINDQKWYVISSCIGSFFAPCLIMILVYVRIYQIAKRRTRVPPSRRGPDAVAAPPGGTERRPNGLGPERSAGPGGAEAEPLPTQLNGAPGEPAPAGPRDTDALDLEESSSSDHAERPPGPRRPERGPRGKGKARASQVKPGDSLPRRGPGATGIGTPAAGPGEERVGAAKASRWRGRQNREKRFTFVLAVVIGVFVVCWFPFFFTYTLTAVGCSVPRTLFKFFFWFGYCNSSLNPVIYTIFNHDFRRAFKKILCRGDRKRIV

Test [8] has as its target T6, Muscarinic acetylcholine receptor M1 (Homo sapiens, UniProt P11229).
T6 sequence (P11229 whole entry): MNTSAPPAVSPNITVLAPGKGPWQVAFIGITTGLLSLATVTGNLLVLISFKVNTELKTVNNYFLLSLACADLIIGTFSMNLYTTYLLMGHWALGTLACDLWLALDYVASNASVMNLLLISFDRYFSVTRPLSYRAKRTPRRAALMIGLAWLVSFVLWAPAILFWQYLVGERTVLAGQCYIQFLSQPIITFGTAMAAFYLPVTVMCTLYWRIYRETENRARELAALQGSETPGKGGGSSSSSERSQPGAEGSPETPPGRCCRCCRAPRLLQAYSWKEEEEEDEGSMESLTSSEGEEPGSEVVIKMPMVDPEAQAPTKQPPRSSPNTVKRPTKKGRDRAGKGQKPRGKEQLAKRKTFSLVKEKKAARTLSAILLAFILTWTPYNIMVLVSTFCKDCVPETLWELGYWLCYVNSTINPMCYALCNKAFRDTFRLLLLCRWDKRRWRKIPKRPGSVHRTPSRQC
Type of test: functional, cell-based.

For test [9], the target named is Neurotensin receptor type 1 (Homo sapiens, UniProt P30989).
Further: assay procedure not described here.

Chain of Neurotensin receptor type 1 (P30989 whole entry): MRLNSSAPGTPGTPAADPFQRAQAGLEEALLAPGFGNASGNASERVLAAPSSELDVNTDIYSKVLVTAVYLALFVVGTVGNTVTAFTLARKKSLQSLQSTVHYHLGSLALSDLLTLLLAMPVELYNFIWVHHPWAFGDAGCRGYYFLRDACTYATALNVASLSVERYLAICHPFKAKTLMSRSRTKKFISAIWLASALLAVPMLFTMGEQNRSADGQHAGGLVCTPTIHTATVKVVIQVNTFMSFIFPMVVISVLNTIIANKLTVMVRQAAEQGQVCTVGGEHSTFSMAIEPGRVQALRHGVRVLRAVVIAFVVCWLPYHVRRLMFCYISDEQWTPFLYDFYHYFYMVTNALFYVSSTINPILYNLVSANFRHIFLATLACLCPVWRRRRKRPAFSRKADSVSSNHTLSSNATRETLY
Chain of 5-hydroxytryptamine receptor 2B (P41595 whole entry): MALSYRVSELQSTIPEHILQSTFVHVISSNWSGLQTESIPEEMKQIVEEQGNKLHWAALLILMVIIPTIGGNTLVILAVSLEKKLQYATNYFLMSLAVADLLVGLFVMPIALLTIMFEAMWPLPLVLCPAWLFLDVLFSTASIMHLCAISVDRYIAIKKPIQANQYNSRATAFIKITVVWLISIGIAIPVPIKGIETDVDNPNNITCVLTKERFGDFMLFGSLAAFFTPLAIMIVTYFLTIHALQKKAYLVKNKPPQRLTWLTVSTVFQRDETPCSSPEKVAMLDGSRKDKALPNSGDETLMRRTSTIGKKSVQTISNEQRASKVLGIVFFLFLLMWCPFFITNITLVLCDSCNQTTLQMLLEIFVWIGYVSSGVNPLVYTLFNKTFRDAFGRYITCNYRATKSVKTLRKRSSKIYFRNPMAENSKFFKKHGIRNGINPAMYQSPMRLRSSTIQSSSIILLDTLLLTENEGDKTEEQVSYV

As for `Cc1cccc(C)c1OCC(C)N` (configuration not stated) [MEXILETINE], the AC50 in test [1] and in test [2] was over 30 µM throughout.
For `N[C@@H](C(=O)N[C@@H]1C(=O)N2C(C(=O)O)=C(Cl)CS[C@H]12)c1ccccc1` [CEFACLOR ANHYDROUS], the AC50 in test [1] and in test [2] was over 30 µM in each case.
Regarding `CN1CCCC(n2nc(Cc3ccc(Cl)cc3)c3ccccc3c2=O)CC1` (configuration not stated) [AZELASTINE], the AC50 in test [1] and in test [2] was over 30 µM each time.
Consider `CC(C(=O)O)c1ccc(N2CC=CC2)c(Cl)c1` (configuration not stated) [PIRPROFEN], for which the AC50 in test [3] was over 10 µM; in [4], over 30 µM; in test [5] it was over 30 µM; in test [6], over 10 µM; in test [7], over 10 µM; in test [8] it was 28.7 µM. In addition, the AC50 in test [9] was over 30 µM.
In the case of `NC(=O)c1ncn([C@@H]2O[C@H](CO)[C@@H](O)[C@H]2O)c1O` [MIZORIBINE], the AC50 in test [1] and in test [2] was over 30 µM each time.
Take `OCc1cc([C@@H](O)CNCCCCCCOCCOCc2c(Cl)cccc2Cl)ccc1O` [VILANTEROL]: the AC50 in test [1] and in test [2] was over 30 µM throughout.
For `CO/N=C(\C(=O)N[C@@H]1C(=O)N2C(C(=O)[O-])=C(C[N+]3(C)CCCC3)CS[C@H]12)c1csc(N)n1`, the results for the AC50 in test [1] and in test [2] were 200 µM and over 300 µM, respectively.
With `CC(=O)c1ccc2c(c1)N(CCCN1CCN(CCO)CC1)c1ccccc1S2` [ACETOPHENAZINE], the AC50 in test [1] and in [2] was over 30 µM each time.
Regarding `COC(=O)[C@@H]1CC2=CC(=O)CC[C@]2(C)[C@@]23O[C@@H]2C[C@@]2(C)[C@@H](CC[C@@]24CCC(=O)O4)[C@H]13` [EPLERENONE], the AC50 in test [3] is over 10 µM; in [4], over 30 µM; in test [5], over 30 µM; in test [1] it was over 30 µM; in [2], over 30 µM; in test [7], over 10 µM. The same compound displayed an AC50 in test [9] of over 30 µM.
As to `OCCN1CCN(CCCN2c3ccccc3C=Cc3ccccc32)CC1` [OPIPRAMOL], the AC50 is over 30 µM in test [1], 1.41 µM in test [6], over 30 µM in test [2] and 25.7 µM in test [8].
For the compound `CN(CCOc1ccc(NS(C)(=O)=O)cc1)CCc1ccc(NS(C)(=O)=O)cc1` [DOFETILIDE], the AC50 in [3] was over 10 µM; in [4], over 30 µM; in test [5], over 30 µM; in test [6], over 10 µM; in [7], over 10 µM; in [8], over 30 µM. Moreover, the AC50 in test [9] was over 30 µM.
Consider `CC[C@H](C)C(=O)O[C@H]1C[C@H](O)C=C2C=C[C@H](C)[C@H](CC[C@@H](O)C[C@@H](O)CC(=O)O)[C@H]21` [PRAVASTATIN], for which the AC50 in test [1] and in test [2] was over 30 µM each time.
As for `CC(C)NNC(=O)c1ccncc1` [IPRONIAZID], the AC50 in test [1] and in test [2] was over 30 µM throughout.
Regarding `CC(C)Cc1ccc(CC(=O)O)cc1` [IBUFENAC], the AC50 in test [1] and in test [2] was over 30 µM in each case.
`CC(N)Cc1ccccc1` (configuration not stated) [AMPHETAMINE]: the AC50 in [4], in test [5], in [1], in [2] and in test [9] was over 30 µM in each case.
As to `CCN(CC)CCNC(=O)c1cc(Cl)c(N)cc1OC` [METOCLOPRAMIDE], the AC50 in test [3] was 0.314 µM; in test [4], over 30 µM; in test [5], over 30 µM; in [6], over 10 µM; in test [7], 7.32 µM; in test [9], over 30 µM.
Turning to `C[C@H]1O[C@H](O[C@H]2[C@H](O)[C@@H](O)[C@@H](O[C@H]3[C@H](O)[C@@H](O)C(O)O[C@@H]3CO)O[C@@H]2CO)[C@H](O)[C@@H](O)[C@@H]1N[C@H]1C=C(CO)[C@@H](O)[C@H](O)[C@H]1O` (some centres not stated) [ACARBOSE], the AC50 is over 10 µM in test [3]; over 30 µM in [4]; over 30 µM in [5]; over 10 µM in test [6]; over 10 µM in [7]; over 30 µM in [9].
